Literature values, collected in patent US11007171B2, “Treatment and prevention of joint disorders” (Summit Innovation Labs, LLC, priority 2017, dated 2021).

Experiments:
P38 MAPK = system: P38 MAPK; design: key: ↓: Downregulate Inducers of arthritis
[1] = system: 23 fungi strains including Candida species; settings: fairly low concentration
NF-κB = system: NF-κB; design: key: ↓: Downregulate Inducers of arthritis
Runx2 = system: Runx2; design: key: ↓: Downregulate Inducers of arthritis
VEGF = system: VEGF; design: key: ↓: Downregulate Inducers of arthritis
[2] = system: Human Chondrocytes Treated with Hydrogen Peroxide or Growth-Related Oncogene a
[3] = doses of a few grams a day in either humans or animals
[4] = system: Collagen induced rheumatoid arthritis; settings: quercetin supplementation
C57BL/6 mice = settings: local intra-articular injection
FGF = system: FGF; design: key: ↓: Downregulate Inducers of arthritis
mice fed high fat diet = settings: oral
Bax = system: Bax; design: key: ↓: Downregulate Inducers of arthritis
male C57BL/6J mice = settings: 0.4% (w/w), 4-8 week-old male C57BL/6J mice
HIF-2α = system: HIF-2α; design: key: ↓: Downregulate Inducers of arthritis
mTOR = mTOR (Homo sapiens, UniProt P42345); design: key: ↓: Downregulate Inducers of arthritis
RA = settings: by suppressing IL-1β, TNF-α, NF-κB, COX2 and PGE2, MMPs, and arthritis index through induction of SIRT1
[5] = system: pigs with the equivalent of human metabolic syndrome
[6] = system: Human Articular Cartilage and Chondrosarcoma Cells
[7] = system: rheumatoid arthritis synovial fibroblast (RASF)
[8] = system: OA cartilage of animal model and IL-1β treated human chondrocytes; settings: resveratrol injection
[9] = system: acute antigen-induced arthritis model
AP1 = system: AP1; design: key: ↓: Downregulate Inducers of arthritis
[10] = system: advanced glycation end products stimulated chondrocytes
[11] = system: osteoarthritis chondrocytes
[12] = system: rats fed a high cholesterol diet
[13] = system: Porphyromonas gingivalis, Prevotella gingivalis, and Actinobacillus actinomycetemcomitans; settings: periodontopathic microorganisms
[14] = system: high fat diet-induced obese mice; settings: compared with controls
[15] = compared with vitamin E
[16] = in vivo
cartilage = settings: by inhibiting iNOS expression
NMDAR = system: NMDAR; design: key: ↓: Downregulate Inducers of arthritis
[17] = system: experimental osteoarthritis; settings: intraarticular magnesium sulfate (MgSO4)
[18] = system: human bone marrow-derived mesenchymal stem cells (hBMSCs); settings: especially at a concentration of 5 μM
[19] = system: rabbit articular chondrocytes; settings: rabbit articular chondrocytes in vitro
[20] = after 4 weeks, 500 mg/day

COc1cc(/C=C/C(=O)CC(=O)/C=C/c2ccc(O)c(OC)c2)ccc1O [Curcumin, (1E,6E)-1,7-Bis(4-hydroxy-3-methoxyphenyl)-1,6-heptadiene-3,5-dione]
Downregulate P38 MAPK (P38 MAPK): ↓ | antifungal activity [1]: potent antifungal activity | IL-1β induced chondrocytes apoptosis (chondrocytes): Inhibited IL-1β induced chondrocytes apoptosis, by suppressing caspase-3 | adhesion of Candida species to human buccal epithelial cells (Candida species): inhibitory effect | Downregulate NF-κB (NF-κB): ↓

OCCc1ccc(O)c(O)c1 [Hydroxytyrosol, 4-(2-Hydroxyethyl)-1,2-benzenediol]
Downregulate Runx2 (Runx2): ↓ | Downregulate VEGF (VEGF): ↓ | level of SIRT1 mRNA ([2]; in the presence of GROα): HT treatment significantly increased the level of SIRT1 mRNA in the presence of | chondrocytes apoptosis, DNA damage ([2]; pretreatment of chondrocytes, oxidative stress or GROα): Pretreatment of chondrocytes with HT (a) prevented chondrocytes apoptosis, DNA

O=c1c(O)c(-c2ccc(O)c(O)c2)oc2cc(O)cc(O)c12 [Quercetin, 3,5,7,3′,4′-pentahydroxyflavone]
side effects [3]: no side effects | NF-κB activity, IL-1β, CRP, monocyte chemotactic protein-1 (rat adjuvant arthritis): Quercetin supplementation significantly reduced NF-κB activity, IL-1β, CRP, | plasma antioxidant activity (rat adjuvant arthritis): monocyte chemotactic protein-1, and increased plasma antioxidant activity [Gardi C, | progression of RA (arthritis score and paw swelling), elastase activity, oxidative stress and NO expression [4]: Quercetin supplementation (a) reduced progression of RA as indicated by a reduction | expression of genes associated with mitochondrial biogenesis (PGC-1a and SIRT1), mitochondrial DNA content, and cytochrome-C concentration (mice; 7 days, 12.5 or 25 mg/kg b.w., muscle and brain, mice): increases | maximal endurance capacity (time to fatigue) and voluntary wheel-running activity (mice; treadmill running test, compared with placebo-treated mice): significantly increased | Downregulate NF-κB (NF-κB): ↓

Oc1ccc(/C=C/c2cc(O)cc(O)c2)cc1 [Resveratrol, 3,5,4′-trihydroxy-trans-stilbene]
AC degradation (C57BL/6 mice): delayed | OA symptoms (C57BL/6 mice): reduced | matrix synthesis (C57BL/6 mice): increased | Downregulate FGF (FGF): ↓ | OA severity (mice fed high fat diet): Significantly reduced | chondrocyte apoptosis (mice fed high fat diet): inhibited | collagen type II expression (mice fed high fat diet): increased | type II collagen and proteoglycan degradation (mice fed high fat diet): prevented | Downregulate Bax (Bax): ↓ | aerobic capacity (male C57BL/6J mice): significantly increased | Downregulate HIF-2α (HIF-2α): ↓ | Downregulate mTOR (mTOR): ↓ | RA development and progression (RA): Resveratrol inhibited RA development and progression by suppressing inflammation | body mass indices, serum cholesterol and C-reactive protein [5]: lowered | glucose tolerance and endothelial function [5]: improved | FGF and IL-1β induced chondrocytes apoptosis, expression of cartilage degrading proteases (MMPs and aggrecanases) and decrease in proteoglycan biosynthesis [6]: Significantly reduced fibroblast growth factor (FGF) and IL-1β induced chondrocytes | apoptosis of rheumatoid arthritis synovial fibroblast (RASF) [7]: Resveratrol induced apoptosis of rheumatoid arthritis synovial fibroblast (RASF) | expression of collagen type II [8]: maintained | expression of iNOS and MMP-13 [8]: reduced | knee swelling, histological score of synovial tissue, proliferating cell nuclear antigen (anti-PCNA), and proteins expressed by circulating microphages (CD 68, CD3) [9]: Resveratrol significantly reduced knee swelling, histological score of synovial tissue, | Downregulate NF-κB (NF-κB): ↓ | Downregulate AP1 (AP1): ↓ | AGEs induced degradation of collagen type II [10]: production of NO and PGE2, prevented AGEs induced degradation of collagen type | AGEs induced expression and activity of MMP-13 [10]: II, and decreased AGEs induced expression and activity of MMP-13 by down | chondrocyte apoptosis [11]: Reduced chondrocyte apoptosis mediated by (a) an inhibition of proapoptotic protein

COc1ccc([C@@H]2CC(=O)c3c(O)cc(O[C@@H]4O[C@H](CO[C@@H]5O[C@@H](C)[C@H](O)[C@@H](O)[C@H]5O)[C@@H](O)[C@H](O)[C@H]4O)cc3O2)cc1O [hesperidin, hesperitin-7-O-rutinoside]
inhibition of liver cholesterol biosynthesis [12]: 28.3% | inhibition of the esterification of hepatic cholesterol [12]: 23.7%

C=CCc1ccc(O)c(-c2ccc(O)c(CC=C)c2)c1 [honokiol]
antimicrobial activity [13]: significant antimicrobial activity | glucose tolerance [14]: improved | plasma total cholesterol and glucose levels [14]: significantly reduced | cytotoxic effect on human gingival cells (human gingival cells): relatively low cytotoxic effect | antioxidant activity, potency relative to vitamin E [15]: 1000 times

C=CCc1ccc(O)c(-c2cc(CC=C)ccc2O)c1 [magnolol, 4-Allyl-2-(5-allyl-2-hydroxy-phenyl)phenol]
antimicrobial activity [13]: significant antimicrobial activity | glucose tolerance [14]: improved | plasma total cholesterol and glucose levels [14]: significantly reduced | oral bioavailability [16]: 4-5% | cytotoxic effect on human gingival cells (human gingival cells): relatively low cytotoxic effect | antioxidant activity, potency relative to vitamin E [15]: 1000 times | fasting blood glucose and plasma insulin levels (type 2 diabetic rats): reduced

Oc1cc(O)c2c(c1)O[C@H](c1ccc(O)c(O)c1)[C@@H](O)[C@@H]2c1c(O)cc(O)c2c1O[C@H](c1ccc(O)c(O)c1)[C@@H](O)C2 [procyanidin B3]
OA progression (OA animal model): Pcy and components of Pcy (procyanidin B2 and B3) slowed OA progression, | cartilage degradation and heterotopic ossification (cartilage): Pcy B3 prevents cartilage degradation and heterotopic ossification (bone formation in

(−)-epicatechin-(4β→8)-(−)-epicatechin [procyanidin B2]
OA progression (OA animal model): Pcy and components of Pcy (procyanidin B2 and B3) slowed OA progression,

Magnesium
Downregulate NMDAR (NMDAR): ↓ | cartilage degradation and chondrocyte apoptosis [17]: Reduced cartilage degradation and chondrocyte apoptosis deposition by blocking | Downregulate NF-κB (NF-κB): ↓

epigallocatechin-3-gallate [EGCG]
Downregulate P38 MAPK (P38 MAPK): ↓ | osteogenic effect on hBMSCs [18]: strong stimulatory effect | chondrocyte proliferation, production of collagen type II and aggrecan [19]: Enhanced chondrocyte proliferation, production of collagen type II and aggrecan. | AGEs induced expression of TNF-α and MMP-13 (OA chondrocytes): Significantly decreased AGEs induced expression of TNF-α and MMP-13 in OA | IL-1β-induced IL-6 and IL-8 synthesis (RASF): Inhibited IL-1β-induced IL-6 and IL-8 synthesis in RASF via suppressing | Downregulate NF-κB (NF-κB): ↓ | Downregulate AP1 (AP1): ↓

glucosyl-hesperidin [G-Hesperidin]
triglyceride level [20]: marked decrease
